Among the data in PubChem BioAssay (NCI) are GI50 and TGI values, retold here.

Test systems include SK-OV-3 ovarian; MALME-3M melanoma; MDA-MB-231 breast; MDA-MB-435; UACC-62 melanoma; OVCAR-4 ovarian; HCC-2998 colon; DU-145 prostate; NCI-H460 lung; TK-10 renal.
What all share (experiment): NCI anticancer screen, dose series, 48 h

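All cell lines were grown in 96-well plates and treated with compound for 48 hours. Abbreviation: GI50, concentration required for 50% inhibition of growth. TGI is the concentration that stops growth completely.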

On to `COc1ccc(-c2nc(-c3nc4ccc(C)cc4[nH]3)cc3c2[nH]c2ccccc23)cc1`, for which the GI50 was 61 µM in the test on SK-OV-3 ovarian; 5.1 µM in the test on MALME-3M melanoma; 6.88 µM in the test with MDA-MB-231 breast; 3.94 µM in the test on MDA-MB-435; 3.34 µM in the test on UACC-62 melanoma; 4.09 µM in the test on OVCAR-4 ovarian. Moreover, the GI50 with HCC-2998 colon is 7.61 µM; in the test with DU-145 prostate, 5.02 µM; with NCI-H460 lung it was 2.99 µM; with TK-10 renal it was 5.45 µM. In addition, the TGI is > 100 µM with SK-OV-3 ovarian; 72.5 µM in the test with MALME-3M melanoma; > 100 µM with MDA-MB-231 breast; > 100 µM in the test with MDA-MB-435; 23.1 µM in the test on UACC-62 melanoma; > 100 µM in the test on OVCAR-4 ovarian. Besides, the TGI in the test on HCC-2998 colon, in the test with DU-145 prostate, in the test with NCI-H460 lung and in the test on TK-10 renal was > 100 µM each time.

On to `CCCOC(=O)c1c(C)n(C)c2scc[n+]12`, for which the GI50 is 49.6 µM with SK-OV-3 ovarian; > 100 µM with MALME-3M melanoma; > 100 µM in the test on MDA-MB-231 breast; > 100 µM with MDA-MB-435; > 100 µM in the test with UACC-62 melanoma; 37.1 µM with OVCAR-4 ovarian. In addition, the GI50 in the test with HCC-2998 colon is 55.9 µM; in the test on DU-145 prostate it was 86.1 µM; with NCI-H460 lung, 52.8 µM; in the test with TK-10 renal it was > 100 µM. Besides, the TGI in the test with SK-OV-3 ovarian, in the test on MALME-3M melanoma, with MDA-MB-231 breast, with MDA-MB-435, in the test on UACC-62 melanoma and in the test with OVCAR-4 ovarian was > 100 µM in each case. The TGI in the test with HCC-2998 colon, in the test on DU-145 prostate, in the test on NCI-H460 lung and with TK-10 renal was > 100 µM throughout.

Regarding `COC(=O)c1c(-c2cccs2)oc(-c2cccs2)c1C(=O)OC`, the GI50 with SK-OV-3 ovarian was > 100 µM; in the test on MALME-3M melanoma, 25 µM; in the test with MDA-MB-231 breast, 34 µM; in the test on MDA-MB-435 it was 26 µM; with UACC-62 melanoma, 27.3 µM; in the test on OVCAR-4 ovarian, 77.8 µM. The GI50 is 36.2 µM in the test with HCC-2998 colon, > 100 µM with DU-145 prostate, 33.1 µM in the test with NCI-H460 lung and 27.9 µM with TK-10 renal. For the same molecule, the TGI with SK-OV-3 ovarian was > 100 µM; in the test with MALME-3M melanoma, 64 µM; in the test on MDA-MB-231 breast it was > 94.5 µM; in the test with MDA-MB-435 it was 87 µM; with UACC-62 melanoma, > 100 µM; with OVCAR-4 ovarian it was > 100 µM. In addition, the TGI in the test on HCC-2998 colon was > 82.8 µM; in the test on DU-145 prostate, > 100 µM; in the test on NCI-H460 lung, > 100 µM; in the test with TK-10 renal it was 82 µM.

On to `O=C1CSC(c2ccccc2Cl)N1c1nnc(Cn2cnnc2)o1` (stereo not given), for which the GI50 in the test with SK-OV-3 ovarian was 14.9 µM; in the test on MALME-3M melanoma, 6.84 µM; in the test with MDA-MB-231 breast, 12.1 µM; with MDA-MB-435, 2.2 µM; in the test with UACC-62 melanoma, 7.55 µM; in the test on OVCAR-4 ovarian, 23.9 µM. For the same molecule, the GI50 is 12.3 µM with HCC-2998 colon, 19.7 µM in the test on DU-145 prostate, 7.91 µM in the test with NCI-H460 lung and 22.8 µM in the test on TK-10 renal. Moreover, the TGI with SK-OV-3 ovarian is 75.7 µM; with MALME-3M melanoma, 30.6 µM; in the test with MDA-MB-231 breast it was 29.9 µM; with MDA-MB-435, 5.96 µM; in the test with UACC-62 melanoma, 27.5 µM; in the test on OVCAR-4 ovarian it was > 100 µM. In addition, the TGI in the test on HCC-2998 colon was 27.2 µM; in the test on DU-145 prostate, 44.3 µM; with NCI-H460 lung it was 43.8 µM; with TK-10 renal it was 81.9 µM.

On to `CCCc1cc(=O)n2c(C(=O)Nc3ccc(F)cc3)c(C(=O)Nc3ccc(F)cc3)sc2n1`, for which the GI50 with SK-OV-3 ovarian is 41.7 µM; with MALME-3M melanoma, 36 µM; in the test with MDA-MB-231 breast, 4.8 µM; in the test on MDA-MB-435, > 160 µM; with UACC-62 melanoma it was 36.8 µM; in the test with OVCAR-4 ovarian, 26.4 µM. Moreover, the GI50 with HCC-2998 colon was > 160 µM; in the test on DU-145 prostate it was 124 µM; in the test with NCI-H460 lung, 73.4 µM; in the test on TK-10 renal, 32.3 µM. Also, the TGI in the test with SK-OV-3 ovarian is > 160 µM; with MALME-3M melanoma it was 91.3 µM; in the test with MDA-MB-231 breast, 23.8 µM; in the test on MDA-MB-435, > 160 µM; with UACC-62 melanoma it was > 160 µM; with OVCAR-4 ovarian, 54.9 µM. In addition, the TGI is > 160 µM with HCC-2998 colon, > 160 µM in the test on DU-145 prostate, > 160 µM with NCI-H460 lung and 74.7 µM in the test on TK-10 renal.

Turning to `[N-]=[N+]=NCCCn1c2c(c3ccc([N+](=O)[O-])cc3c1=O)C(=O)c1cc(Br)ccc1-2`, the GI50 in the test on SK-OV-3 ovarian, with MALME-3M melanoma, with MDA-MB-231 breast, in the test on MDA-MB-435, with UACC-62 melanoma and with OVCAR-4 ovarian was > 100 µM in each case. The GI50 in the test with HCC-2998 colon is > 100 µM; in the test with DU-145 prostate, 14.9 µM; with NCI-H460 lung, 8.35 µM; in the test with TK-10 renal, > 100 µM. The TGI in the test on SK-OV-3 ovarian, in the test with MALME-3M melanoma, in the test with MDA-MB-231 breast, in the test on MDA-MB-435, with UACC-62 melanoma and with OVCAR-4 ovarian was > 100 µM throughout. Also, the TGI in the test on HCC-2998 colon, with DU-145 prostate, in the test with NCI-H460 lung and with TK-10 renal was > 100 µM in each case.

For the molecule `C=C1C(O)C2CC(C)(CO)C(=O)C2=C(CC(C)C)C12CC2` (stereo not given), the GI50 is > 100 µM in the test with SK-OV-3 ovarian; 28.3 µM with MALME-3M melanoma; > 100 µM with MDA-MB-231 breast; 75 µM in the test with MDA-MB-435; 78.6 µM in the test with UACC-62 melanoma; > 100 µM in the test on OVCAR-4 ovarian. Further, the GI50 in the test with HCC-2998 colon is > 100 µM; in the test with DU-145 prostate, 86.4 µM; in the test on NCI-H460 lung, 67 µM; in the test with TK-10 renal, 52.9 µM. Moreover, the TGI in the test with SK-OV-3 ovarian, in the test with MALME-3M melanoma, in the test on MDA-MB-231 breast, with MDA-MB-435, with UACC-62 melanoma and with OVCAR-4 ovarian was > 100 µM in each case. Moreover, the TGI with HCC-2998 colon, in the test on DU-145 prostate, with NCI-H460 lung and with TK-10 renal was > 100 µM in each case.
